Reference: the supplement of paper PMC10307832

compound: CC(C)=CC[C@@H](O)C1=CC(=O)c2c(O)ccc(O)c2C1=O [Shikonin]; assay: relative viability (nuclei count vs DMSO), 5 days (fraction); higher = more cells survive; conditions: 0.01 µM
Summary of the method: (§1)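 Only plates meeting two conditions passed: control CV below 25% and at least one doubling. Lung cancer cell lines, kept overnight at 37 °C in 1536-well plates, were pinned with five library-drug doses (not always all listed) √10 apart on vehicle-anchored plates and grown 5 days without medium change. A one-step fix, permeabilisation and Hoechst stain preceded 4× imaging and MetaXpress nuclear counting. Viability equals treated-well nuclei divided by vehicle-well nuclei, as the median over plates.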

In order of rising relative viability:
1. NCI-H1395  0.899
2. BEN  0.926
3. HARA  0.931
4. NCI-H1734  0.935
5. NCI-H596  0.935
6. HCC-78  0.942
7. NCI-H1666  0.966
8. NCI-H2347  0.971
9. H3255  0.978
10. COR-L 105  0.979
11. LOU-NH91  0.984
12. LCLC-97TM1  0.991
13. NCI-H2405  0.998
14. HCC-44  1
15. 201T  1
16. NCI-H2126  1.01
17. NCI-H2170  1.01
18. A549  1.02
19. LU99A  1.02
20. NCI-H3122  1.03
21. A-427  1.03
22. SK-MES-1  1.04
23. HCC-827  1.04
24. NCI-H2023  1.05
25. NCI-H460  1.06
26. NCI-H1915  1.07
27. NCI-H650  1.08
28. LXF-289  1.08
29. NCI-H838  1.09
30. LK-2  1.1
31. IA-LM  1.13
32. HOP-62  1.15
33. COR-L23  1.18

same assay, conditions: 0.1 µM

In order of rising relative viability:
1. NCI-H2170  0.866
2. IA-LM  0.875
3. NCI-H650  0.937
4. LK-2  0.955
5. A549  0.956
6. NCI-H596  0.962
7. COR-L 105  0.973
8. NCI-H1395  0.987
9. LXF-289  0.999
10. LU99A  1
11. BEN  1
12. NCI-H1666  1.02
13. COR-L23  1.02
14. LCLC-97TM1  1.02
15. LOU-NH91  1.04
16. NCI-H838  1.04
17. NCI-H2405  1.04
18. HCC-827  1.04
19. HCC-44  1.05
20. H3255  1.06
21. 201T  1.06
22. NCI-H2126  1.07
23. NCI-H3122  1.07
24. NCI-H460  1.07
25. NCI-H2347  1.07
26. SK-MES-1  1.08
27. Calu-6  1.11
28. HOP-62  1.11
29. HCC-78  1.14
30. HCC-366  1.15
31. NCI-H1734  1.15
32. NCI-H2023  1.17
33. A-427  1.17
34. NCI-H1915  1.17
35. HARA  1.21

same assay, conditions: 0.3162 µM

In order of falling relative viability:
1. HOP-62  1.23
2. NCI-H2023  1.19
3. COR-L23  1.12
4. NCI-H2170  1.12
5. SK-MES-1  1.1
6. NCI-H1666  1.08
7. LCLC-97TM1  1.08
8. NCI-H2405  1.08
9. LXF-289  1.08
10. NCI-H2126  1.07
11. NCI-H3122  1.07
12. A549  1.07
13. HARA  1.07
14. NCI-H460  1.07
15. NCI-H2347  1.06
16. H3255  1.05
17. IA-LM  1.05
18. NCI-H1915  1.05
19. Calu-6  1.04
20. HCC-366  1.04
21. LOU-NH91  1.04
22. HCC-78  1.04
23. NCI-H596  1.04
24. HCC-827  1.04
25. HCC-44  1.03
26. BEN  1.03
27. NCI-H838  1.03
28. A-427  1.02
29. NCI-H1734  1.02
30. 201T  1.02
31. NCI-H650  0.999
32. LK-2  0.998
33. LU99A  0.996
34. COR-L 105  0.911
35. NCI-H1395  0.846

same assay, conditions: 1 µM

In order of rising relative viability:
1. COR-L 105  0.855
2. IA-LM  0.859
3. NCI-H650  0.913
4. LU99A  0.923
5. Calu-6  0.93
6. SK-MES-1  0.962
7. LCLC-97TM1  0.968
8. NCI-H2023  0.972
9. NCI-H2347  0.984
10. NCI-H1395  0.987
11. NCI-H838  0.988
12. NCI-H2170  0.99
13. NCI-H1734  0.991
14. LXF-289  0.992
15. COR-L23  0.995
16. A549  0.997
17. H3255  1.02
18. LOU-NH91  1.02
19. HOP-62  1.02
20. NCI-H2405  1.02
21. HCC-366  1.03
22. LK-2  1.03
23. NCI-H2126  1.03
24. NCI-H3122  1.04
25. NCI-H1666  1.05
26. NCI-H460  1.05
27. NCI-H1915  1.06
28. HCC-827  1.06
29. NCI-H596  1.08
30. HCC-44  1.09
31. 201T  1.09
32. HCC-78  1.15
33. A-427  1.16
34. BEN  1.18
35. HARA  1.22

compound: CC(C)N(CCCNC(=O)Nc1ccc(C(C)(C)C)cc1)C[C@H]1O[C@@H](n2ccc3c(N)ncnc32)[C@H](O)[C@@H]1O; assay: as above; conditions: 0.08 µM
Summary of the method: as §1

In order of falling relative viability:
1. NCI-H1666  1.06
2. HCC-78  1.05
3. LCLC-97TM1  1.05
4. COR-L23  1.04
5. HOP-62  1.04
6. HCC-827  1.03
7. IA-LM  1.02
8. NCI-H2405  1.02
9. NCI-H2347  1.02
10. Calu-6  1
11. 201T  1
12. SK-MES-1  0.996
13. HCC-44  0.989
14. NCI-H460  0.982
15. LOU-NH91  0.981
16. NCI-H3122  0.978
17. NCI-H596  0.976
18. NCI-H2170  0.972
19. LXF-289  0.97
20. HCC-366  0.965
21. A-427  0.962
22. NCI-H1915  0.957
23. NCI-H2126  0.955
24. NCI-H2023  0.955
25. BEN  0.954
26. A549  0.93
27. NCI-H1734  0.926
28. NCI-H838  0.92
29. COR-L 105  0.887
30. LK-2  0.886
31. HARA  0.882
32. H3255  0.876
33. LU99A  0.876
34. NCI-H1395  0.838
35. NCI-H650  0.831

same assay, conditions: 0.253 µM

In order of rising relative viability:
1. NCI-H838  0.748
2. NCI-H1395  0.782
3. HCC-78  0.787
4. LK-2  0.792
5. NCI-H596  0.795
6. NCI-H1734  0.804
7. LU99A  0.842
8. NCI-H2023  0.864
9. A549  0.877
10. IA-LM  0.879
11. NCI-H650  0.902
12. LOU-NH91  0.908
13. NCI-H2126  0.918
14. H3255  0.929
15. A-427  0.93
16. NCI-H2170  0.937
17. SK-MES-1  0.942
18. COR-L 105  0.943
19. NCI-H460  0.953
20. HARA  0.954
21. NCI-H2347  0.963
22. NCI-H2405  0.974
23. NCI-H3122  0.98
24. HCC-366  0.988
25. LCLC-97TM1  1
26. NCI-H1915  1.01
27. BEN  1.02
28. 201T  1.02
29. Calu-6  1.03
30. NCI-H1666  1.03
31. COR-L23  1.03
32. LXF-289  1.03
33. HCC-44  1.04
34. HOP-62  1.06
35. HCC-827  1.06

same assay, conditions: 0.8 µM

In order of falling relative viability:
1. COR-L23  1.08
2. LCLC-97TM1  1.07
3. NCI-H650  1.06
4. LK-2  1.04
5. LU99A  1.04
6. A-427  1.03
7. IA-LM  1.02
8. A549  1.02
9. Calu-6  0.996
10. SK-MES-1  0.99
11. NCI-H2023  0.977
12. NCI-H1666  0.975
13. NCI-H3122  0.965
14. NCI-H1734  0.962
15. NCI-H596  0.962
16. BEN  0.948
17. NCI-H2126  0.942
18. HCC-78  0.942
19. NCI-H460  0.935
20. NCI-H2347  0.935
21. NCI-H838  0.931
22. NCI-H2405  0.931
23. HCC-366  0.927
24. NCI-H2170  0.924
25. LXF-289  0.923
26. COR-L 105  0.921
27. H3255  0.919
28. HOP-62  0.856
29. NCI-H1915  0.848
30. HCC-44  0.789
31. 201T  0.746
32. NCI-H1395  0.646
33. HARA  0.62
34. HCC-827  0.584

same assay, conditions: 2.53 µM

In order of falling relative viability:
1. NCI-H596  1.11
2. NCI-H2405  1.06
3. NCI-H2347  1.06
4. NCI-H1666  1.05
5. Calu-6  1.04
6. LXF-289  1.03
7. SK-MES-1  1.02
8. NCI-H2170  1.02
9. COR-L23  1.01
10. HCC-827  1.01
11. NCI-H460  0.996
12. HCC-366  0.984
13. 201T  0.981
14. LOU-NH91  0.979
15. LU99A  0.979
16. HCC-44  0.976
17. LK-2  0.966
18. IA-LM  0.963
19. NCI-H2126  0.961
20. A-427  0.958
21. NCI-H838  0.958
22. NCI-H3122  0.954
23. NCI-H1734  0.949
24. NCI-H1915  0.947
25. COR-L 105  0.943
26. A549  0.94
27. HOP-62  0.939
28. H3255  0.933
29. NCI-H1395  0.933
30. NCI-H2023  0.931
31. LCLC-97TM1  0.903
32. HCC-78  0.875
33. BEN  0.863
34. NCI-H650  0.775
35. HARA  0.774

same assay, conditions: 8 µM

In order of falling relative viability:
1. NCI-H596  1.09
2. BEN  1.03
3. COR-L23  1.02
4. LU99A  1.02
5. NCI-H460  1.02
6. 201T  1.02
7. LOU-NH91  1
8. HCC-78  1
9. NCI-H3122  0.993
10. LCLC-97TM1  0.989
11. A-427  0.984
12. NCI-H2170  0.975
13. LK-2  0.974
14. Calu-6  0.966
15. NCI-H2405  0.966
16. HCC-827  0.961
17. NCI-H2347  0.955
18. LXF-289  0.95
19. NCI-H1915  0.942
20. SK-MES-1  0.939
21. A549  0.933
22. HCC-44  0.93
23. COR-L 105  0.923
24. NCI-H1734  0.916
25. NCI-H1666  0.914
26. NCI-H2126  0.905
27. NCI-H838  0.904
28. H3255  0.893
29. HCC-366  0.892
30. NCI-H650  0.882
31. HOP-62  0.879
32. NCI-H2023  0.846
33. IA-LM  0.84
34. NCI-H1395  0.799
35. HARA  0.784
